Reference: patent publication US20060228417A1, “Mucoadhesive composition comprising polyacrylate and chemoattractant” (priority 2003, published 2006)
Where no end group is shown, it is not given here.

Assays:
[1] = test system: human DC in xenografts of HPV-transformed keratinocytes (CasKi cell line); experiment: Xenograft assay in NOD/SCID mice: DC recruitment into transplants of HPV-transformed keratinocytes; assay type: in vivo
Procedure: HPV-transformed keratinocytes (2×10^5, CasKi cell line, ATCC, CRL-1550) were plated on collagen gel (2 mg/ml of type I collagen isolated from rat tail tendons) inserted in Teflon rings (Renner, Dannstadt, Germany) and maintained in culture for one day before transplantation onto mice. Twelve-week-old NOD-scid/scid mice were used for this study. They were housed under sterile conditions and water and feed were provided ad libitum. Before transplantation, the cells were washed and the medium was drained. […] Fluorescent DC were counted in the epithelium and, after anti-keratin immunolabeling, the epithelial surface was evaluated with a computerized system of image analysis (CAS, Becton Dickinson, Erembodegem, Belgium). Infiltration results were expressed as numbers of DC per mm^2 of epithelium. […]
Graft cryosections (5 μm in thickness) were fixed in acetone at −20° C. and in 80% methanol at 4° C. […] After washes in PBS, coverslips were mounted and labeling was analysed under an microscope equipped with epifluorescence optics.
A control group of mice was treated with PBS alone. […] The DC infiltration in transplants was assessed by looking for stained DC in histological sections. […] Quantitative analysis of DC infiltration was performed by determining the number of DC per mm2 of epithelial tissue.

[2] = test system: DC in organotypic cultures of HPV-transformed keratinocytes (SiHa cell line); experiment: DC infiltration into organotypic cultures of HPV-transformed keratinocytes (CD1a labeled surface); assay type: cell-based, human; settings: 800 U/ml GM-CSF, 48 h
Excerpt: (§1) DC were generated from the adherent fraction of human PBMC (Peripheral Blood Mononuclear Cells) with 800 U/ml GM-CSF (Novartis, Brussels) and 20 U/ml IL-4 (Biosource Europe, Nivelles, Belgium), as previously described (16). DC generated for this study constituted a 90% pure cell population based on several criteria including morphology, forward-scatter and side-scatter values observed by FACS (Fluorescence Activated Cell Sorter) analysis and surface phenotype (CD1a+, CD14−, CD4+, CD54+, . . . ).
The DC were labeled with a lipophilic fluorescent marker (CM-DiL, Molecular Probes, Leiden, The Netherlands) according to a previously described procedure with minor modifications. Briefly, 4×106 DC were resuspended in 1 ml of PBS and heated to 37° C. […]
(§2) The density of DC migrating into the epithelial layer was assessed by the avidin-biotin-peroxidase technique (Vectastain ABC kit, Vector laboratories, Burlingame, Calif.) with an anti-CD1a monoclonal antibody (clone NA1/34 from Dako, Glostrup, Denmark). […] The DC infiltration in organotypic cultures was evaluated by measuring the surface of immunostained cells with a computerized system of image analysis (CAS, Becton Dickinson, Erembodegem, Belgium) following a method previously described (6). The entire surface of each culture section was analyzed and 5 sections of each culture were stained with anti-CD1a. […]

[3] = test system: DC in organotypic cultures of HPV-transformed keratinocytes; experiment: DC infiltration depth in organotypic cultures of HPV-transformed keratinocytes; assay type: cell-based, human; settings: 48 hours after chemoattractant addition; GM-CSF 800 U/ml, MCP-1 500 ng/ml, HNP2 750 ng/ml (FIG. 6A)
Excerpt: as §1
Organotypic cultures of HPV-transformed keratinocytes (SiHa cell line (10)) were prepared as previously reported (17). After a 2 week stratification of keratinocytes, labeled DC were seeded on top of the in vitro formed epithelium at a concentration of 2×10^5 cells/50 μl of culture medium. The organotypic culture was then placed on the polycarbophil gel containing or not 800 U/ml of GM-CSF. In order to maintain the culture, the polycarbophil gel (1.5 w/w) was prepared by dispersing the Noveon AA1 in keratinocyte growth medium. […]
as §2, with “anti-CD1a. The positive surface was expressed as the percentage of the total surface analyzed. In additional experiments, the LC/DC infiltration depth in the organotypic culturs was evaluated by measuring the distance between the top of the epithelium and individual DC with a computerized system of image analysis (CAS, Becton Dikinson, Erembodegem, Belgium). We then calculated the ratio between the infiltration depth and the thickness of the culture.” for “anti-CD1a.”

Row | Substance | recruitment of DC in the tumor grafts ([1]; GM-CSF applied in transplantation chamber versus control mice (FIG. 5)) | DC infiltration in the grafts, number of DC per mm2 of epithelial tissue ([1]; NOD-SCID mice, 200 μl injected twice into transplantation chamber, 4×10^5 U/ml or U/g, mean ± SD (n=5)) [DC/mm2] | DC infiltration, CD1a labeled surface ([2]; mean ± SD (n=5)) | density of fluorescent-labeled DC within the epithelial sheet ([2]; versus absence of GM-CSF (FIG. 4)) | DC infiltration depth in organotypic culture [3]
1 | granulocyte macrophage—colony stimulating factor [GM-CSF] | significant (p<0.001) recruitment of DC | 16.6±14.6 | 28.33±8.11 % of CD1a labeled surface | significant increase in the density of DC | significant increase in the density of DC observed in the epithelial layer
2 | Human Neutrophil Peptide-2 (CYCRIPACIAGERRYGTCIYQGRLWAFCC; ends and bridges not checked; cysteine pairing not given here; UniProt P59665 66-94, looked up) [HNP2, human neutrophil defensin 2, Sigma-Aldrich] |  |  |  |  | reached an infiltration level equivalent to that obtained with GM-CSF
3 | Monocyte Chemotactic Protein 1 [MCP1] |  |  |  |  | reached an infiltration level equivalent to that obtained with GM-CSF
